Structures are written as SMILES.

For one experiment, the system named is male ICR mouse. Kind of experiment: Acetic acid-induced writhing method. The experiment is classed as in vivo. Here is the method:
The effect of the test compound in the writhing test method induced by acetic acid was examined using male ICR mouse (4-week-old). For intraperitoneal administration of the test compound, the test compound was dissolved in saline containing 5% DMSO and 5% Tween 80 to a suitable concentration, and administered at a dose of 5 ml/kg at 30 min before acetic acid administration. For oral administration of the test compound, the test compound was suspended in 0.5% CMC and administered at a dose of 5 ml/kg at 1 hr before acetic acid administration. Acetic acid was diluted with saline to 0.9%, intraperitoneally administered at a dose of 5 ml/kg and, starting 5 min thereafter, the number of writhing responses was counted for 15 min. Saline containing 5% DMSO and 5% Tween 80 was also intraperitoneally administered to the control group (vehicle administration group). As the standard product, indomethacin was used, which was suspended in 0.5% tragacanth gum and orally administered at 90 min before acetic acid administration. 0.5% Tragacanth gum was administered to the control group.
The number of writhing responses by each test compound is shown in FIG. 1 and the number of writhing responses by indomethacin is shown in FIG. 2.
For orientation: In writhing tests, fewer writhes than in controls are read as antinociception.

For the next experiment, the system named is Male ICR mice. Kind of experiment: Mustard oil-induced thermal hyperalgesia model method (hot plate test). As to conditions: 1.0 mg/kg oral, 1 hr before hot plate test; ICR mouse. Type of experiment: in vivo. As to the method: Male ICR mice (5 to 7-week-old) were used. Mustard oil 10% (diluted with distilled water) was subcutaneously injected into both hind paws, and a hot plate test was performed 30 min […] later. The animal was placed on a hot plate and the latency for nociceptive behavior was measured and used as an index. The compound was suspended in 0.5% CMC and orally administered at a dose of 5 ml/kg at 1 hr before the hot plate test. The inhibitory rate was calculated relative to the index measured before administration as 100%.

On to `O=C(NCCOc1ccc(F)cc1)Nc1ccccc1Br` [Example 1, N-(2-bromophenyl)-N′-[2-(4-fluorophenoxy)ethyl]urea], for which the “inhibitory rate (number of writhing responses)” value with male ICR mouse (10 mg/kg intraperitoneal, 30 min before acetic acid) is reported as 76%.

For `C[C@@H](COc1cccc(Cl)c1)NC(=O)Nc1cccc2cnccc12` [Example 38, N-[(1S)-2-(3-chlorophenoxy)-1-methylethyl]-N′-(isoquinolin-5-yl)urea], in the experiment on Male ICR mice, the “inhibition rate (latency for nociceptive behavior)” value came out at 57%.

`COc1ccc2c(c1)c(CC(=O)O)c(C)n2C(=O)c1ccc(Cl)cc1` [indomethacin, reference compound]: the “inhibitory rate (number of writhing responses)” value in the experiment on male ICR mouse (30 mg/kg oral, 90 min before acetic acid) was 56%.
